Legend:
[1] = test system: LDL; test: LDL antioxidation test (CuCl2-initiated LDL oxidation, lag time); format: biochemical, human; conditions: Table 2, 10 μM; for Lag Time: control 20 min
[2] = Distribution of isoflavones in lipoprotein subfractions of whole plasma; format: in vitro ADME
Method: Cpd. 1 ([…]), was incubated with whole plasma for 0 h, 4 h and 8 h. The different subfractions LDL/VLDL, HDL and protein (lipoprotein free) were then analysed for their Cpd. 1 concentration. Cpd. 1 was used because it had the most similar polarity to the isoflavone synthetic derivatives.

[3] = 45 mg over 5 to 10 weeks; cited from earlier work
[4] = test system: rat isolated aortic rings; test: Protection against endothelium damage induced by oxidised LDL, acetylcholine dilatation (Protocol 3); conditions: ox-LDL 0.3 mg protein/ml; β-estradiol 10 pg/ml, Cpd. 5 300 ng/ml, Cpd. 7 1 μg/ml, Cpd. 8 and 12 3 μg/ml
Method: (§1) Male Sprague-Dawley rats (250±50 g) were gassed with 80% CO2 and 20% O2 until killed. The thoracic aorta was excised and quickly placed in ice-cold Krebs modified solution composed of NaCl […], […] 4.7 mM, MgSO4 7H2O 1.17 mM, NaHCO3 25 mM, KH2PO4 1.18 mM, CaCl2 2.5 mM, glucose 11 mM and EDTA 0.03 mM. It was then trimmed of fat and connective tissue and cut into 2-3 mm wide rings. Each ring was mounted on two parallel stainless steel hooks in a single water-jacketed 3 ml organ bath containing modified Krebs solution maintained at 37° C. and bubbled with 95% O2 plus 5% CO2. The lower hook was attached to a movable support leg and the upper hook to an FTO3 force transducer (Grass Scientific Instruments, Mitutoyo, Japan) for isometric recordings. Changes in force were amplified (Quadbridge amplifier, Scientific Concepts Inc., Victoria, Australia) and recorded on a MacLab 8E data acquisition system (Adinstruments Pty Ltd., NSW, Australia) linked to an Apple computer (Apple Computer Inc, Cupertina, Calif.). Rings were set at an initial tension of 2 g and allowed to equilibrate for 30 minutes after which time they were re-set to 2 g tension before the commencement of each experimental protocol.
Full concentration response curves to phenylephrine were constructed from which the concentration giving a submaximal contraction of approximately 80% was selected (usually 0.3 μM). Tissues were then constricted with phenylephrine at the selected concentration and allowed to plateau. Full concentration dilatory curves were then constructed to acetylcholine. […]
Human plasma was obtained from the blood bank. […] The protein content of the final LDL fraction obtained was determined by the simplified protein assay method of Lowry. […]
Contractile responses are expressed in g tension (mean+standard error of the mean). Dilatory responses are expressed as a percentage of the contractile force generated by the pre-constricting agent used. […]

[5] = test system: rat thoracic aorta; test: Contractile curves to noradrenaline in rat isolated aortic rings (Protocol 1); conditions: test compound 1 μg/ml
Method: as §1
Full concentration-contractile curves were obtained to noradrenaline (0.1 nM-[…]) in the absence and presence of β-estradiol (1 μg/ml); Cpd. 5 (0.1 and 1 μg/ml); Cpd. 7 (0.1 and 1 μg/ml); Cpd. 8 (0.1 and 1 μg/ml) and Cpd. 12 (1 μg/ml) and the vehicle equi-volume DMSO. Only one compound at any one concentration was tested on any one ring from any one animal.
(§2) Contractile responses are expressed in g tension (mean+standard error of the mean). Dilatory responses are expressed as a percentage of the contractile force generated by the pre-constricting agent used. Individual concentration-response curves for noradrenaline and acetylcholine±the interventions used were fitted to a logistic equation of the form […] where E is the response, M is the maximum response and K is the concentration eliciting 50% of the maximum response (ie neg log EC50).

[6] = test system: IMA-derived human VSMC primed with PDGF BB; test: PDGF BB-induced VSMC DNA synthesis, proliferation and cell number; format: cell-based; conditions: Homo sapiens, VSMC, 3 h, read-out: inhibition of PDGF BB-induced DNA synthesis ([3H]-thymidine incorporation)
Method: Cell proliferation was induced by a variety of growth factors such as serum and platelet derived growth factor (PDGF).
Media was changed to LG serum-free DMEM and cells were treated with [^3H]-thymidine at 1 μCi/well for 3 hours. Cells were washed twice with ice cold Dulbecco's PBS. Next, ice cold 0.2M HClO4 (1 ml/well) was added and cells were incubated on ice for 30 min. Cells were then washed three times with 0.5 ml/well of ice cold 0.2M HClO4. Media (0.5 ml/well of 0.2 M NaOH) was replaced and cells were incubate at 37° C. After 1 hour, cells were treated with acetic acid (6%, 0.2 ml/well), transferred to scintillation vials with 3 ml scintillation liquid (Instagel) and counted for 2 min per vial.
The effect of Cpd. 5 and Cpd. 7 was tested further in IMA-derived human VSMC primed with PDGF BB instead of serum. […] (FIG. 12). This effect was equivalent to that observed with estradiol. Cpd.
In further experiments Cpd. […] 7 at 100 nmol/L), indicating ER-mediation. […] 7 (1-100 nmol/L).

[7] = test system: rat isolated aortic rings; test: Vasodilatory capacity in noradrenaline pre-constricted aortic rings and mechanism of action (Protocol 2a/2b)
Method: as §1
A full concentration response to noradrenaline was obtained. From this the concentration producing a submaximal contraction of approximately 80% was selected (0.03-0.3 μM). The ring was then constricted with this submaximal concentration and allowed to plateau before full concentration-relaxation curves were obtained to β-estradiol and Cpds. 5, 7, 8 and 12 and the vehicle DMSO (at equi-volume). Only one compound was studied with any one ring from any one animal.
Full relaxation curves were obtained to Cpds. 5, 7, 8 and 12 and β-estradiol in the absence and presence of the endothelium (rings were denuded of endothelium by gentle rotation of the lumen against a rough surface), the nitric oxide synthase inhibitor nitro-L-arginine (NOLA 10 μM; with the exception of Cpd. 8, due to limited supply of the compound), KCl 40 mM (to inhibit endothelium derived hyperpolarising factor), the cyclo-oxygenase inhibitor indomethacin (10 μM) and the soluble guanylate cyclase inhibitor 1H-[1,2,4]oxadiazolo[4,3-a]quinoxalin-1-one (ODQ; 10 μM). Only one compound with only one intervention was tested on any one ring from any one animal.
as §2

COc1ccc(-c2coc3cc(O)cc(O)c3c2=O)cc1 [Biochanin]
% Increase in Time [1]: 0% | Lag Time [1]: 20 min

O=c1c(-c2ccc(O)cc2)coc2cc(O)ccc12 [Cpd. 1, daidzein]
amount associated with the lipoproteins, dependence on time and concentration [2]: increased with time, but not with concentration | % Increase in Time [1]: 0% | Lag Time [1]: 19 min

O=c1c(-c2ccc(O)cc2)coc2cc(O)cc(O)c12 [Cpd. 3, genistein]
effect on blood lipid concentrations [3]: no significant effect on blood lipid concentrations | % Increase in Time [1]: 0% | Lag Time [1]: 20 min

COc1cc2c(=O)c(-c3ccc(O)cc3)coc2cc1O [Glycitein]
% Increase in Time [1]: 0% | Lag Time [1]: 20 min

C[C@]12CC[C@@H]3c4ccc(O)cc4CC[C@H]3[C@@H]1CC[C@@H]2O [β-estradiol, 1,3,5[10]-estratriene-3,17β-diol, reference compound]
protective effect against ox-LDL inhibition of acetylcholine dilatation (in words) [4]: diminished the effect of ox-LDL | y max, Noradrenaline + Test compound (B) ([5]; mean ± SEM): 0.22 ± 0.12 g tension | y max Difference (A − B) ([5]; noradrenaline alone minus noradrenaline + compound): 2.1 ± 0.31 g tension | inhibition at 0.001 µM [6]: 27% | inhibition at 0.01 µM [6]: 27% | inhibition at 0.1 µM [6]: 33% | vasodilatory response: effect of high KCl levels ([7]; KCl 40 mM): inhibited | vasodilatory response: effect of nitro-L-arginine (NOLA) ([7]; NOLA 10 μM): inhibited | vasodilatory response: effect of ODQ ([7]; ODQ 10 μM): inhibited | vasodilatory response: effect of removal of the endothelium ([7]; denuded vs intact endothelium): inhibited | vasodilatory response: effect of indomethacin ([7]; indomethacin 10 μM): did not influence
